The values below come from ChEMBL document CHEMBL4665813, “Antifungal polybrominated proxyphylline derivative induces Candida albicans calcineurin stress response in Galleria mellonella” (Bioorg Med Chem Lett, 2020).

Data set [1] relates to Candida albicans. Put plainly: Antifungal activity against Candida albicans CAI4 infected in Galleria mellonella larvae assessed as increase in larvae survival at 0.64 ug/mg measured within 5 days. In kind it is functional, organism-based. The settings on record: time 5.0 day.
The nature of data set [2]: Toxicity in Galleria mellonella infected with Candida albicans harboring cnb1delta/CNB1 assessed as effect on haemocyte aggregation at 0.64 microg/mg pre-treated with compound for 1 hr followed by fungal infection by hematoxylin and eosin staining based analysis. The settings on record: […].
For data set [3], the system named is Candida albicans. Description: Induction of necrosis in Candida albicans by flow cytometry analysis. It is filed as functional. In general terms: A flow cytometer gives signals particle by particle.
Data set [4] deals with Candida albicans. Put plainly: Antibiofilm activity against Candida albicans at 5 to 20 uM. In kind it is functional, organism-based. Conditions: dose microM 5-20.
Data set [5] relates to Vero. Description: Inhibition of calcineurin in Candida albicans harboring sap9delta mutant assessed as change in CNB1 expression measured during invasion of African green monkey Vero cells at 5 uM after 18 hrs by RT-qPCR analysis (reference value: -4.39).
For data set [6], the system named is Candida albicans. Description: Induction of apoptosis in Candida albicans harboring cnb1delta mutant at 20 uM. In kind it is functional, organism-based.
The test system of data set [7] is Vero. Description: Inhibition of calcineurin in Candida albicans harboring sap9/10delta mutant assessed as change in CNB1 expression measured during invasion of African green monkey Vero cells at 5 uM after 18 hrs by RT-qPCR analysis (reference value: -1.67).
Data set [8] relates to Candida albicans. Description: Reduction in Candida albicans adhesion to epithelium expressing SAP9/10 mutant relative to control. In kind it is functional. Details: scale not given: the % may be the effect or the level left.
The subject of data set [9] is Candida albicans. Description: Induction of cell membrane permeabilization in Candida albicans by flow cytometry analysis. It is filed as functional, organism-based.
For data set [10], the system named is Candida albicans. Description: Induction of apoptosis in Candida albicans at sub-MIC. It is filed as functional, organism-based.
Data set [11] can be described thus: Toxicity in Galleria mellonella infected with Candida albicans CAI4 assessed as haemocyte aggregation in tracheal walls at 0.64 microg/mg infected with fungi followed by compound treatment for 1 hr by hematoxylin and eosin staining based analysis. The settings on record: dose 0.64 µg/mg.
Data set [12] deals with Candida albicans. Put plainly: Decrease in chitin level in Candida albicans harboring cnb1delta/CNB1 mutant by measuring staining index at 20 uM after 18 hrs by calcofluor White staining based flow cytometry analysis. It is filed as functional.
The subject of data set [13] is Vero. Description: Inhibition of calcineurin in Candida albicans harboring sap9/10delta mutant assessed as change in CNB1 expression measured during invasion of African green monkey Vero cells at 5 uM after 8 hrs by RT-qPCR analysis relative to control.
Data set [14] can be described thus: Toxicity in Galleria mellonella infected with Candida albicans harboring cnb1delta/CNB1 assessed as effect on melanization at 0.64 microg/mg pre-treated with compound for 1 hr followed by fungal infection by hematoxylin and eosin staining based analysis. The settings on record: dose 0.64 µg/mg.
The test system of data set [15] is Candida albicans. Description: Induction of apoptosis in wild type Candida albicans SC5314 at 20 uM. In kind it is functional.
In data set [16] the test system is Candida albicans. Put plainly: Reduction in Candida albicans SC5314 adhesion to epithelium expressing wild-type SAP9/10 at 5 uM. In kind it is functional, organism-based.
Data set [17] concerns Vero. Description: Inhibition of calcineurin in Candida albicans CAI4 assessed as change in CNB1 expression measured during invasion of African green monkey Vero cells at 5 uM after 18 hrs by RT-qPCR analysis (reference value: -3.66). In kind it is cell-based. In general terms: Quantitative PCR measures a nucleic acid by following its amplification.
The test system of data set [18] is Candida albicans. Put plainly: Inhibition of calcineurin catalytic activity in Candida albicans at 5 uM.
The subject of data set [19] is Candida albicans. Description: Antifungal activity against Candida albicans harboring cnb1delta/CNB1 mutant infected in Galleria mellonella larvae assessed as increase in larvae survival at 0.64 ug/mg measured within 5 days. The settings on record: dose 0.64 µg/mg, time 5.0 day. In kind it is functional, organism-based.
Data set [20] can be described thus: Toxicity in Galleria mellonella infected with Candida albicans harboring cnb1delta/CNB1 assessed as formation of nodules at 0.64 microg/mg infected with fungi followed by compound treatment for 1 hr by hematoxylin and eosin staining based analysis. Conditions: dose 0.64 µg/mg.
For data set [21], the system named is Candida albicans. Description: Reduction in Candida albicans SC5314 adhesion to epithelium expressing wild-type SAP9/10 at 20 uM. It is filed as functional, organism-based.
The nature of data set [22]: Inhibition of calcineurin phosphatase activity (unknown origin). Details: species or system Homo sapiens.
The nature of data set [23]: Inhibition of calcineurin phosphatase activity in human Jurkat cells by Western blot analysis. It is filed as cell-based.

Each structure is given as a SMILES string. Calls of active or inactive are those of the source. The rule behind the calls is not given here.

As a reminder, the IC50 is the concentration at which inhibition is half-maximal.

Turning to `CC(Cn1cnc2c1c(=O)n(C)c(=O)n2C)OCc1cn(CCCn2nc3c(Br)c(Br)c(Br)c(Br)c3n2)nn1` (stereo not drawn), the outcome in the data set on Candida albicans [1], with Candida albicans [4], with Candida albicans [6], in the data set on Candida albicans [10], in the data set with Candida albicans [12] and in the data set on Candida albicans [15] was Active. Also, the outcome in the data set with Candida albicans [19] and with Candida albicans [21] was Active. Further, the Activity entry in data set [2] was “Non-Toxic”; in the data set on Candida albicans [3], “Dose-dependent effect”; in the data set on Candida albicans [8], 100%; in the data set with Candida albicans [9], “Dose-dependent effect”; in data set [11] it was “Toxic”; in data set [14], “Non-Toxic”. In [20], the Activity result is reported as “Non-Toxic”. Besides, the fold change (FC) is 0.24 with Vero [5], -4.52 with Vero [7], -2.38 with Vero [13] and -2.98 in the data set with Vero [17]. The outcome in the data set with Candida albicans [16] was inactive. Also, the inhibition entry in the data set with Candida albicans [18] was “Active”.
With `C=CC[C@@H]1/C=C(\C)C[C@H](C)C[C@H](OC)[C@H]2O[C@@](O)(C(=O)C(=O)N3CCCC[C@H]3C(=O)O[C@H](/C(C)=C/[C@@H]3CC[C@@H](O)[C@H](OC)C3)[C@H](C)[C@@H](O)CC1=O)[C@H](C)C[C@@H]2OC` [TACROLIMUS ANHYDROUS], the IC50 was found to be 0.4 nM in [22] and 2 nM in data set [23].
